According to patent EP0522596A1, “Method and means for inducing constriction of the pupil in the eye” (Kabi Pharmacia AB, priority 1989, dated 1993):
Entries after “also recorded” stand apart in the source; their conditions may differ. Ends that are not written are not given here.

Tests used:
[1] = system: sphincter muscle of the iris; conditions: injected into the anterior chamber; Bill et al., 1979; cited from earlier work
pupil [2] = conditions: primates; Mandahl et al., 1980; cited from earlier work
pupil [3] = assay: Capsaicin-induced miosis in monkeys with and without Lorglumide pretreatment; assay type: in vivo, Macaca fascicularis
Description: Example 7: Monkeys (Macaca fascicularis) were anesthesized, pretreated with atropine and cannulated as described in Example 1. Then 10 µl of a 1% solution of Capsaicin was injected into the anterior chamber; the diameter of the pupil was measured 15 minutes later. The decrease in pupil size obtained with this dose varied from 0 to 1.5 mm.

pupil [4] = assay: Antagonism of the CCK-8 miosis dose-response in the monkey eye in vivo; design: species or system monkeys; conditions: 0.75 µg of Lorglumide injected into the anterior chamber
Description: Example 5: Dose-response determination of CCK-8 was carried out on one eye of atropine treated, pentobarbital anesthesized monkeys in accordance with the description in Example 1. Thereafter 0.75µg of Lorglumide in 15µl of isotonic saline was injected into the anterior chamber of the other eye. The CCK-8 dose-response relationship was then determined in the same way as in the case of the first eye.

[5] = system: receptor present on the sphincter muscle; assay type: in vivo; conditions: nerve blockade with tetrodotoxin; pretreatment with indomethacin

substance P (RPKPQQFFGLM; ends and bridges not checked; UniProt P20366 58-68, looked up) [neuropeptide released in the eye on irritation; synthetically produced]
response of the sphincter muscle of the iris [1]: substantial contractive response | pupillary response to substance P (pupil [2]): totally absent

CCCCCN(CCCCC)C(=O)C(CCC(=O)O)NC(=O)c1ccc(Cl)c(Cl)c1 (racemic) [Lorglumide, D,L-4-(3,4-dichlorobenzoylamino)-5-(dipentylamino)-5-oxo-pentanoic acid]
effect on the pupil response to Capsaicin (pupil [3]; pretreatment with 7.5 µg Lorglumide in 15 µl, capsaicin-sensitive animals): decreased the response to Capsaicin; also recorded: most of the effect on the pupil was eliminated | shift of the CCK-8 dose-response curve to the right (pupil [4]): more than one order of magnitude

COc1cc(CNC(=O)CCCCC=CC(C)C)ccc1O [Capsaicin, 8-methyl-N-vanillyl-6-nonenamide]
miotic response in monkeys (pupil [3]; cynomolgus monkey, in vivo): less consistent and less pronounced as compared to the response in rabbits

COc1ccc2c(c1)c(CC(=O)O)c(C)n2C(=O)c1ccc(Cl)cc1 [indomethacin]
effect of pretreatment on the miosis response to CCK [5]: do not cause a decrease in the miosis response
